This passage reports inhibition, IC50 and pKa results from ChEMBL document CHEMBL1932949, “Novel indoleamine 2,3-dioxygenase-1 inhibitors from a multistep in silico screen” (Bioorg Med Chem, 2012).

In the first series the target is T1, Indoleamine 2,3-dioxygenase 1 (Homo sapiens, UniProt P14902). The experiment in a line: Inhibition of His-tagged recombinant human IDO1 expressed in Escherichia coli using tryptophan as substrate at 100 uM by spectrophotometric analysis.
Conditions: not given
Target sequence in this assay (P14902 whole entry, looked up): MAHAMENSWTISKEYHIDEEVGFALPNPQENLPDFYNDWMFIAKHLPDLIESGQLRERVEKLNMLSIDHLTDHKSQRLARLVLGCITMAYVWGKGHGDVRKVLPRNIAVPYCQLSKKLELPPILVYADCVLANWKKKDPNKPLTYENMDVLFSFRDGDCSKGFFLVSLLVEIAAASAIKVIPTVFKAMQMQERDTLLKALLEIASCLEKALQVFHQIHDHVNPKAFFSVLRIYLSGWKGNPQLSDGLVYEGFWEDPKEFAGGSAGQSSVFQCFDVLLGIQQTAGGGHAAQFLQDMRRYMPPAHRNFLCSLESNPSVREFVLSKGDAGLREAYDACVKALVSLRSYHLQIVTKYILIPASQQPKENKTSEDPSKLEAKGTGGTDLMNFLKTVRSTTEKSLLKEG
By inhibition is commonly meant the drop in the measured response relative to a control, in per cent. For the compound `Nc1cc2ccccc2cc1C(=O)O`, the inhibition was 74%.

Another series has as its target T1, Indoleamine 2,3-dioxygenase 1. The series can be described thus: Inhibition of His-tagged recombinant human IDO1 expressed in Escherichia coli using tryptophan as substrate by spectrophotometric analysis.
Conditions: not given
Target sequence in this assay (P14902 whole entry): as the sequence (P14902 whole entry, looked up) above
What is called IC50 is the concentration that gives 50% inhibition. On to `Nc1cc2ccccc2cc1C(=O)O`, for which the IC50 is 15 µM. Still for that read-out and setting: in the case of `O=C(O)c1cc2ccccc2cc1O` it was 1000 µM. On the same count and under the same terms, under `c1ccc2c(c1)[nH]c1cnccc12` [NORHARMANE] stands 90 µM. The same measure, in the same setting: under `Nc1cc2ccccc2cc1CO` stands 190 µM; under `COC(=O)c1cc2ccccc2cc1N`, 460 µM.

The next series has the same target. The series can be described thus: Inhibition of His-tagged recombinant human IDO1 expressed in Escherichia coli using tryptophan as substrate by Ehrlich's method.
Conditions: not given
Target sequence in this assay (P14902 whole entry): as the sequence (P14902 whole entry, looked up) above
As to `N=C(NOC(=O)c1cc2ccccc2oc1=O)c1ccc(Oc2ccc(C(F)(F)F)cc2[N+](=O)[O-])cc1`, the IC50 amounted to 20 µM. Same read-out and setting: under `NC(=NOC(=O)c1ccccc1Cl)c1cccc(CS(=O)(=O)c2ccc(Cl)cc2)c1` stands 60 µM.

Regarding `Cc1nnsc1C(=O)O/N=C(/N)COc1ccc(C2SCCS2)cc1`, the IC50 came out at 50 µM.

Test system in the next series: not listed separately
The series can be described thus: Dissociation constant, pKa of the compound.
Conditions: not given
It counts as physicochemical.
One may read the pKa as the negative logarithm of the acid dissociation constant. Higher therefore signals a group that holds its proton tightly. For the compound `CSC(=N)N`, the pKa amounted to 9.83.

For the next series, the target named is T1, Indoleamine 2,3-dioxygenase 1. The following applies: at 200 µM.
Target sequence in this assay (P14902 whole entry, looked up): as above
Description: Inhibition of His-tagged recombinant human IDO1 expressed in Escherichia coli using tryptophan as substrate at 200 uM by spectrophotometric analysis
`S=C1N2CCN=C2SC2=NCCN12` had an inhibition of 0%. Still for that read-out and setting: under `O=c1[nH]nc2n1-c1ccccc1SC2` stands 0%; under `Cn1c(S)nnc1-c1ccc(Cl)cc1`, 0%; under `N/C(CS(=O)(=O)c1ccccc1)=N\O`, 0%. Still for that read-out and setting: in the case of `Cc1cc2nnc(/C(N)=N/O)c(C)n2n1` it was 0%; in that of `CCOC(=O)N1CCN(CC(O)Cn2c(=O)c3c(ncn3C)n(C)c2=O)CC1` (stereo not given), 0%. In the case of `N/C(=N/OC(=O)c1cc2ccccc2oc1=O)c1ccc(Oc2ccc(C(F)(F)F)cc2[N+](=O)[O-])cc1`, the inhibition stood at 70%. Consider `CN1CCN(C(=O)c2nccnc2C(=O)O)CC1`, for which the inhibition worked out at 0%.

Compound `N/C(=N\OC(=O)c1ccccc1Cl)c1cccc(CS(=O)(=O)c2ccc(Cl)cc2)c1` displayed an inhibition of 70%. As for `CN(C)CCCNc1cccc(Cl)c1C#N`, the inhibition is 0%.

Turning to `O=c1c2ccccc2nc2ccccn12`, the inhibition is 0%. On the same count and under the same terms, in the case of `O[C@@H](CNCCNc1nccc(C(F)(F)F)n1)CSc1ccc(F)cc1` it was 0%. As for `Sc1nnc2nnc3ccccc3n12`, the inhibition amounted to 0%. Regarding `N/C(=N\OS(=O)(=O)c1ccc(Cl)cc1)c1ccc(C(F)(F)F)cc1`, the inhibition amounted to 0%. Same read-out and setting: in the case of `O=c1nc2sccn2c2ncccc12` it was 0%. On the same count and under the same terms, in the case of `Cc1nnsc1C(=O)O/N=C(/N)COc1ccc(C2SCCS2)cc1` it was 70%. In turn, `OC1(c2ccc(Cl)cc2)CCN(Cn2nnc3ccccc32)CC1` showed an inhibition of 0%. The same measure, in the same setting: in the case of `Nc1ccc2c(c1)N1CCN=C1S2` it was 70%.

A further series shares this target. The series can be described thus: Inhibition of IDO1.
Conditions: not given
Target sequence in this assay (P14902 whole entry): as the sequence (P14902 whole entry, looked up) above
Turning to `Cc1[nH]ccc2c1[nH]c1cc(=O)ccc12` [HARMOL], half-maximal inhibition (IC50) was put at 2000 µM.

The target is the same in a further series. The series can be described thus: Inhibition of His-tagged recombinant human IDO1 expressed in Escherichia coli using tryptophan as substrate by HPLC analysis.
Conditions: not given
Target sequence in this assay (P14902 whole entry): as the sequence (P14902 whole entry, looked up) above
As to `Nc1ccc2c(c1)N1CCN=C1S2`, the IC50 stood at 50 µM.
